Measured values published in patent EP4603105A1, “PHARMACEUTICAL COMPOSITION CONTAINING CYCLIC COMPOUND HAVING SELECTIVE KRAS INHIBITORY EFFECT AGAINST HRAS AND NRAS” (CHUGAI SEIYAKU KABUSHIKI KAISHA, priority 2022, dated 2024).

Columns and labels:
[1] = target: GDP-bound NRAS wild-type protein (Homo sapiens, UniProt P01111); assay: Binding to NRAS by surface plasmon resonance (SPR), KD and KD ratio to KRAS; conditions: ratio of KD value for GDP-bound NRAS wild-type protein to KD value for KRAS (SPR)
Summary of the method: (§1)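 Single-cycle kinetics on GDP-loaded biotin-Avi RAS captured to ~100–300 RU; 75 s ascending injections, 100 µL/min, 30°C. HBS pH 7.4 + 10 mM MgCl2/10 µM GDP/4% DMSO. 1:1 fit, KD.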

HRAS wild-type protein = HRAS wild-type protein (Homo sapiens, UniProt P01112); assay: Binding to HRAS by surface plasmon resonance (SPR), KD and KD ratio to KRAS; conditions: ratio of KD value for HRAS wild-type protein to KD value for KRAS (SPR)
Summary of the method: as §1

[2] = tested on: human lung cancer strain NCI-H441; type: cell-based
Summary of the method: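 Proliferation was scored by […] measured after the reagent was added to cultures kept at 37°C in 5% carbon dioxide.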

HRAS wild-type protein, sequence (P01112 whole entry): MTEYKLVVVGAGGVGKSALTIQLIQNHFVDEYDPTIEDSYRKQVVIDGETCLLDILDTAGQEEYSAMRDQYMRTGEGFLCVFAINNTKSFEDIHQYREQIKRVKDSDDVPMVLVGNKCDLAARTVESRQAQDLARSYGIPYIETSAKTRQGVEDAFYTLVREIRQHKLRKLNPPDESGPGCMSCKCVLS
GDP-bound NRAS wild-type protein, sequence (P01111 whole entry): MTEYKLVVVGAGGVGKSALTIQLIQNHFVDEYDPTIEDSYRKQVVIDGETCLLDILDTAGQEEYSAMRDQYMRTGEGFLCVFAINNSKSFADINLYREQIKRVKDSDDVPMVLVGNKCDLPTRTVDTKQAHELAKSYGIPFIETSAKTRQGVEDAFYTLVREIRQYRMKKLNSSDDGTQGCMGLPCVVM

Structure (SMILES)	IC50 [2]	NRAS /KRAS [1]	HRAS /KRAS (HRAS wild-type protein)
CCO[C@@H]1C[C@H]2C(=O)NC3(CCC3)C(=O)N(C)[C@@H](C(CC)CC)C(=O)N(C)[C@H](C(=O)N(C)C)CC(=O)N(C)[C@@H](CC3CCCC3)C(=O)N[C@@H]([C@@H](C)CC)C(=O)N(C)CC(=O)N(C)[C@H]3C/C=C\CCN(C3=O)[C@@H](Cc3ccc(F)cc3)C(=O)N(C)CC(=O)N[C@@H](CCc3cc(F)c(C(F)(F)F)c(F)c3)C(=O)N2C1 [PP1517]	33.6 nM	A (a compound having 10 or more and less than 20 is denoted as A)	A (a compound having 10 or more and less than 20 is denoted as A)
CCO[C@@H]1C[C@H]2C(=O)NC3(CCC3)C(=O)N(C)[C@@H](C(CC)CC)C(=O)N(C)[C@H](C)CC(=O)N(C)[C@@H](CC3CC3)C(=O)N[C@@H]([C@@H](C)CC)C(=O)N(C)CC(=O)N(C)[C@H]3C/C=C\CCN(C3=O)[C@@H](Cc3ccc(F)cc3)C(=O)N(C)CC(=O)N[C@@H](CCc3cc(F)c(C(F)(F)F)c(F)c3)C(=O)N2C1 [PP1521]	173 nM	A (a compound having 10 or more and less than 20 is denoted as A)	B (a compound having 3 or more and less than 10 is denoted as B)
CCO[C@@H]1C[C@H]2C(=O)NC3(CCC3)C(=O)N(C)[C@@H](C(CC)CC)C(=O)N(C)[C@H](C)CC(=O)N(C)[C@@H](CC3CCCC3)C(=O)N[C@@H]([C@@H](C)CC)C(=O)N(C)CC(=O)N(C)[C@H]3C/C=C\CCN(C3=O)[C@@H](Cc3ccc(F)cc3C)C(=O)N(C)CC(=O)N[C@@H](CCc3cc(F)c(C(F)(F)F)c(F)c3)C(=O)N2C1 [PP1522]	567 nM	A (a compound having 10 or more and less than 20 is denoted as A)	A (a compound having 10 or more and less than 20 is denoted as A)
CCO[C@@H]1C[C@H]2C(=O)NC3(CCC3)C(=O)N(C)[C@@H](C(CC)CC)C(=O)N(C)[C@H](C(=O)N3CCOCC3)CC(=O)N(C)[C@@H](CC3CC3)C(=O)N[C@@H]([C@@H](C)CC)C(=O)N(C)CC(=O)N(C)[C@H]3C/C=C\CCN(C3=O)[C@@H](Cc3ccc(F)cc3C)C(=O)N(C)CC(=O)N[C@@H](CCc3cc(F)c(C(F)(F)F)c(F)c3)C(=O)N2C1 [PP1526]	118 nM	A (a compound having 10 or more and less than 20 is denoted as A)	A (a compound having 10 or more and less than 20 is denoted as A)
CCO[C@@H]1C[C@H]2C(=O)NC3(CCC3)C(=O)N(C)[C@@H](C3CCCC3)C(=O)N(C)[C@H](C(=O)N(C)C)CC(=O)N(C)[C@@H](CC3CCCC3)C(=O)N[C@@H]([C@@H](C)CC)C(=O)N(C)CC(=O)N(C)[C@H]3C/C=C\CCN(C3=O)[C@@H](Cc3ccc(F)cc3)C(=O)N(C)CC(=O)N[C@@H](CCc3cc(F)c(C(F)(F)F)c(F)c3)C(=O)N2C1 [PP1531]	13.9 nM	A (a compound having 10 or more and less than 20 is denoted as A)	B (a compound having 3 or more and less than 10 is denoted as B)
CCO[C@@H]1C[C@H]2C(=O)NC3(CCC3)C(=O)N(C)[C@@H](C3CCCC3)C(=O)N(C)[C@H](C(=O)N(C)C)CC(=O)N(C)[C@@H](CC(C)C)C(=O)N[C@@H]([C@@H](C)CC)C(=O)N(C)CC(=O)N(C)[C@H]3C/C=C\CCN(C3=O)[C@@H](Cc3ccc(F)cc3C)C(=O)N(C)CC(=O)N[C@@H](CCc3cc(F)c(C(F)(F)F)c(F)c3)C(=O)N2C1 [PP1532]	13.4 nM	A (a compound having 10 or more and less than 20 is denoted as A)	B (a compound having 3 or more and less than 10 is denoted as B)
CC[C@H](C)[C@@H]1NC(=O)[C@H](CC2CC2)N(C)C(=O)C[C@@H](C(=O)N(C)C)N(C)C(=O)[C@H](C2CCCC2)N(C)C(=O)C2(CCC2)NC(=O)[C@@H]2[C@@H](OCC(F)F)CCN2C(=O)[C@H](CCc2cc(F)c(C(F)(F)F)c(F)c2)NC(=O)CN(C)C(=O)[C@H](Cc2ccc(C(F)(F)F)cc2)N2CC/C=C\C[C@@H](C2=O)N(C)C(=O)CN(C)C1=O [PP1533]	23.8 nM	AA (a compound having 20 or more is denoted as AA)	A (a compound having 10 or more and less than 20 is denoted as A)
CC[C@H](C)[C@@H]1NC(=O)[C@H](CC(C)C)N(C)C(=O)C[C@@H](C(=O)N(C)C)N(C)C(=O)[C@H](C2CCCC2)N(C)C(=O)C2(CCC2)NC(=O)[C@@H]2[C@@H](OCC(F)F)CCN2C(=O)[C@H](CCc2cc(F)c(C(F)(F)F)c(F)c2)NC(=O)CN(C)C(=O)[C@H](Cc2ccc(C(F)(F)F)cc2)N2CC/C=C\C[C@@H](C2=O)N(C)C(=O)CN(C)C1=O [PP1534]	24.7 nM	AA (a compound having 20 or more is denoted as AA)	A (a compound having 10 or more and less than 20 is denoted as A)

Continued by falling IC50 [2], values first:

IC50 [2]	Structure (SMILES)	NRAS /KRAS [1]	HRAS /KRAS (HRAS wild-type protein)
78.2 nM	CCO[C@@H]1C[C@H]2C(=O)NC3(CCC3)C(=O)N(C)[C@@H](C(CC)CC)C(=O)N(C)[C@H](C(=O)N(C)C)CC(=O)N(C)[C@@H](CC(C)C)C(=O)N[C@@H]([C@@H](C)CC)C(=O)N(C)CC(=O)N(C)[C@H]3C/C=C\CCN(C3=O)[C@@H](Cc3ccc(F)cc3)C(=O)N(C)CC(=O)N[C@@H](CCc3cc(F)c(C(F)(F)F)c(F)c3)C(=O)N2C1 [PP1519]	A (a compound having 10 or more and less than 20 is denoted as A)	A (a compound having 10 or more and less than 20 is denoted as A)
49.4 nM	CCO[C@@H]1C[C@H]2C(=O)NC3(CCC3)C(=O)N(C)[C@@H](C(CC)CC)C(=O)N(C)[C@H](C(=O)N(C)C)CC(=O)N(C)[C@@H](CC(C)C)C(=O)N[C@@H]([C@@H](C)CC)C(=O)N(C)CC(=O)N(C)[C@H]3C/C=C\CCN(C3=O)[C@@H](Cc3ccc(F)cc3C)C(=O)N(C)CC(=O)N[C@@H](CCc3cc(F)c(C(F)(F)F)c(F)c3)C(=O)N2C1 [PP1518]	A (a compound having 10 or more and less than 20 is denoted as A)	B (a compound having 3 or more and less than 10 is denoted as B)
45.7 nM	CCO[C@@H]1C[C@H]2C(=O)NC3(CCC3)C(=O)N(C)[C@@H](C(CC)CC)C(=O)N(C)[C@H](C(=O)N(C)C)CC(=O)N(C)[C@@H](CC3CCCC3)C(=O)N[C@@H]([C@@H](C)CC)C(=O)N(C)CC(=O)N(C)[C@H]3C/C=C\CCN(C3=O)[C@@H](Cc3ccc(F)cc3C)C(=O)N(C)CC(=O)N[C@@H](CCc3cc(F)c(C(F)(F)F)c(F)c3)C(=O)N2C1 [PP1516]	A (a compound having 10 or more and less than 20 is denoted as A)	B (a compound having 3 or more and less than 10 is denoted as B)
24.8 nM	CC[C@H](C)[C@@H]1NC(=O)[C@H](CC2CCCC2)N(C)C(=O)C[C@@H](C(=O)N(C)C)N(C)C(=O)[C@@H](C2CCCC2)N(C)C(=O)C2(CCC2)NC(=O)[C@@H]2[C@@H](OCC(F)F)CCN2C(=O)[C@@H](CCc2cc(F)c(C(F)(F)F)c(F)c2)NC(=O)CN(C)C(=O)[C@@H](Cc2ccc(C)cc2)N2CC/C=C\C[C@H](C2=O)N(C)C(=O)CN(C)C1=O [PP1536]	A (a compound having 10 or more and less than 20 is denoted as A)	B (a compound having 3 or more and less than 10 is denoted as B)
